Several values for one entry are separate records, joined by “and”; a condition that tells them apart may be missing. Identical values can stand only once.
Conditions: for mass density: 101.33 kPa, Liquid, Vibrating tube method; for surface tension liquid-gas: Pendant drop shape

COCCOCCOC [2,5,8-trioxanonane]
Conditions | mass density | surface tension liquid-gas [mN/m]
303.15 K | 933.98 kg/m3 | –
303.16 K | 933.65 kg/m3 | 28.54
308.15 K | 928.95 kg/m3 | –
313.15 K | 923.97 kg/m3 | –
313.16 K | 923.61 kg/m3 | 27.57
318.15 K | 918.94 kg/m3 | –
323.15 K | 913.9 kg/m3 | –
323.17 K | 913.51 kg/m3 | 26.27
328.15 K | 908.84 kg/m3 | –
333.15 K | 903.76 kg/m3 and 903.38 kg/m3 | 24.98
338.15 K | 898.67 kg/m3 | –
343.15 K | 893.55 kg/m3 and 893.13 kg/m3 | 23.79
348.15 K | 888.41 kg/m3 | –
353.15 K | 883.24 kg/m3 | –
353.16 K | 882.79 kg/m3 | 22.87
358.15 K | 878.04 kg/m3 | –
363.14 K | 872.36 kg/m3 | 21.68
363.15 K | 872.81 kg/m3 | –
373.14 K | 861.79 kg/m3 | 20.53
383.16 K | 851.06 kg/m3 | 19.43
393.15 K | 840.22 kg/m3 | 18.37

CCCCC(CC)COC(C)=O (centres undefined) [2-ethylhexyl acetate]
Conditions | mass density | surface tension liquid-gas [mN/m]
303.15 K | 863.51 kg/m3 | –
303.17 K | 863.56 kg/m3 | 25.15
308.15 K | 859.15 kg/m3 | –
313.15 K | 854.77 kg/m3 | –
313.16 K | 854.84 kg/m3 | 24.23
318.15 K | 850.39 kg/m3 | –
323.15 K | 846.01 kg/m3 | –
323.16 K | 846.08 kg/m3 | 23.23
328.15 K | 841.61 kg/m3 | –
333.15 K | 837.2 kg/m3 and 837.29 kg/m3 | 22.28
338.15 K | 832.78 kg/m3 | –
343.15 K | 828.35 kg/m3 and 828.44 kg/m3 | 21.27
348.15 K | 823.91 kg/m3 | –
353.15 K | 819.45 kg/m3 | –
353.16 K | 819.54 kg/m3 | 20.22
358.15 K | 814.98 kg/m3 | –
363.15 K | 810.49 kg/m3 and 810.59 kg/m3 | 19.26
373.15 K | 801.56 kg/m3 | 18.35
383.15 K | 792.46 kg/m3 | 17.44
393.16 K | 783.27 kg/m3 | 16.59

COCCO [2-methoxyethan-1-ol]
Conditions | mass density [kg/m3] | surface tension liquid-gas [mN/m]
303.15 K | 956.73 | –
303.16 K | 956.41 | 30.06
308.15 K | 952.09 | –
313.14 K | 947.1 | 29.01
313.15 K | 947.42 | –
318.15 K | 942.72 | –
323.15 K | 937.98 | –
323.16 K | 937.62 | 27.98
328.15 K | 933.21 | –
333.14 K | 928.03 | 26.9
333.15 K | 928.39 | –
338.15 K | 923.54 | –
343.15 K | 918.64 | –
343.16 K | 918.23 | 25.88
348.15 K | 913.69 | –
353.15 K | 908.7 | –
353.16 K | 908.26 | 24.7
358.15 K | 903.65 | –
363.15 K | 898.55 | –
363.16 K | 898.09 | 23.6
373.16 K | 887.7 | 22.56
383.17 K | 877.05 | 21.58
393.17 K | 866.15 | 20.51

CCOC(=O)CCC(=O)OCC [diethyl butanedioate]
Conditions | mass density | surface tension liquid-gas [mN/m]
303.15 K | 1029.59 kg/m3 | –
303.16 K | 1029.57 kg/m3 | 30.62
308.15 K | 1024.4 kg/m3 | –
313.15 K | 1019.2 kg/m3 and 1019.2 kg/m3 | 29.55
318.15 K | 1014.01 kg/m3 | –
323.15 K | 1008.81 kg/m3 and 1008.81 kg/m3 | 28.42
328.15 K | 1003.6 kg/m3 | –
333.15 K | 998.39 kg/m3 | –
333.17 K | 998.37 kg/m3 | 27.41
338.15 K | 993.16 kg/m3 | –
343.15 K | 987.93 kg/m3 | –
343.17 K | 987.91 kg/m3 | 26.33
348.15 K | 982.7 kg/m3 | –
353.15 K | 977.45 kg/m3 | –
353.16 K | 977.44 kg/m3 | 25.12
358.15 K | 972.19 kg/m3 | –
363.15 K | 966.91 kg/m3 | –
363.16 K | 966.9 kg/m3 | 24.02
373.14 K | 956.34 kg/m3 | 22.95
383.15 K | 945.69 kg/m3 | 21.96
393.17 K | 934.96 kg/m3 | 21.03

Cc1ccccc1 [toluene]
Conditions | surface tension liquid-gas [mN/m]
303.16 K | 27.15
308.15 K | 26.51
313.15 K | 25.98
318.13 K | 25.42
323.15 K | 24.89
328.16 K | 24.34
333.14 K | 23.65
338.16 K | 23.08
343.16 K | 22.55
348.16 K | 21.98
353.15 K | 21.45
358.15 K | 20.92
363.16 K | 20.37
368.14 K | 19.86

From the NIST ThermoML archive (doi:10.1016/j.fluid.2017.08.016)
